US10829796B2, “Bacteria identification and antimicrobial susceptibility test” (priority 2015, dated 2020)

Assays:
Assay in all cases: Antibiotic susceptibility testing (colour of media), spiked milk
Type in all cases: cell-based
Streptococcus uberis = conditions: T~16 h, 37° C., bacteria samples 6d, plate configuration #3
Experimental: (§1) Tables 36 to 38 which follow show further examples of antibiotic susceptibility testing performed in accordance with the present invention. Table 36, antibiotic susceptibility testing of Staphylococcus aureus in Mueller Hinton and Tryptic Soy Broth at pre-incubation and at between 15-24 h. Tables 37 and 38, antimicrobial susceptibility testing of Streptococcus uberis and E. coli with the addition of gram negative specific antibiotic aztreonam. Tables 38 to 49 show further examples of antibiotic susceptibility testing and the outcomes are aligned with the described inventions.

Escherichia coli = conditions: 37° C., plate configuration #3
Experimental: as §1

Staphylococcus aureus = conditions: for Colour of media: bacteria sample 5c; for Colour of media in each well: T~16 h, 37° C., plate configuration #3
Experimental: as §1

Compound: CC1(C)S[C@@H]2[C@H](NC(=O)Cc3ccccc3)C(=O)N2[C@H]1C(=O)O [benzyl penicillin]
- Colour of media in each well (Streptococcus uberis; Benzyl Penicillin or Cloxacillin 1 μg/ml): red
- Colour of media in each well (Streptococcus uberis; Benzyl Penicillin or Cloxacillin 10 μg/ml): red
- Colour of media in each well (Streptococcus uberis; Benzyl Penicillin or Cloxacillin 100 μg/ml): red
- Colour of media in each well (Streptococcus uberis; Benzyl Penicillin or Cloxacillin 1,000 μg/ml): red
- Colour of media in each well (Streptococcus uberis; Benzyl Penicillin or Cloxacillin 10,000 μg/ml): red
- Colour of media in each well (Escherichia coli; T~16 h, bacteria samples 4c, Benzyl Penicillin or Cloxacillin 1 μg/ml): yellow
- Colour of media in each well (Escherichia coli; T~16 h, bacteria samples 4c, Benzyl Penicillin or Cloxacillin 10 μg/ml): yellow
- Colour of media in each well (Escherichia coli; T~16 h, bacteria samples 4c, Benzyl Penicillin or Cloxacillin 100 μg/ml): red
- Colour of media in each well (Escherichia coli; T~16 h, bacteria samples 4c, Benzyl Penicillin or Cloxacillin 1,000 μg/ml): red
- Colour of media in each well (Escherichia coli; T~16 h, bacteria samples 4c, Benzyl Penicillin or Cloxacillin 10,000 μg/ml): red
- Colour of media in each well (Escherichia coli; t~16 h, bacteria samples 4e, Benzyl Penicillin or Cloxacillin 1 μg/ml): yellow
- Colour of media in each well (Escherichia coli; t~16 h, bacteria samples 4e, Benzyl Penicillin or Cloxacillin 10 μg/ml): yellow
- Colour of media in each well (Escherichia coli; t~16 h, bacteria samples 4e, Benzyl Penicillin or Cloxacillin 100 μg/ml): Red
- Colour of media in each well (Escherichia coli; t~16 h, bacteria samples 4e, Benzyl Penicillin or Cloxacillin 1,000 μg/ml): Red
- Colour of media in each well (Escherichia coli; t~16 h, bacteria samples 4e, Benzyl Penicillin or Cloxacillin 10,000 μg/ml): Red
- Colour of media (Staphylococcus aureus; T = 0 hours (pre incubation), drug 0.01 μg/ml, Mueller Hinton (70 ul composition 26)): red
- Colour of media (Staphylococcus aureus; T = 0 hours (pre incubation), drug 0.01 μg/ml, Tryptic Soy (70 ul composition 2c)): red
- Colour of media (Staphylococcus aureus; T = 0 hours (pre incubation), drug 0.01 μg/ml, Tryptic Soy, wells H (20 ul composition 2c)): red
- Colour of media (Staphylococcus aureus; T = 0 hours (pre incubation), drug 0.05 μg/ml, Mueller Hinton (70 ul composition 26)): red
- Colour of media (Staphylococcus aureus; T = 0 hours (pre incubation), drug 0.05 μg/ml, Tryptic Soy (70 ul composition 2c)): red
- Colour of media (Staphylococcus aureus; T = 0 hours (pre incubation), drug 0.05 μg/ml, Tryptic Soy, wells H (20 ul composition 2c)): red
- Colour of media (Staphylococcus aureus; T = 0 hours (pre incubation), drug 0.1 μg/ml, Mueller Hinton (70 ul composition 26)): red
- Colour of media (Staphylococcus aureus; T = 0 hours (pre incubation), drug 0.1 μg/ml, Tryptic Soy (70 ul composition 2c)): red
- Colour of media (Staphylococcus aureus; T = 0 hours (pre incubation), drug 0.1 μg/ml, Tryptic Soy, wells H (20 ul composition 2c)): red
- Colour of media (Staphylococcus aureus; T = 0 hours (pre incubation), drug 0.5 μg/ml, Mueller Hinton (70 ul composition 26)): red
- Colour of media (Staphylococcus aureus; T = 0 hours (pre incubation), drug 0.5 μg/ml, Tryptic Soy (70 ul composition 2c)): red
- Colour of media (Staphylococcus aureus; T = 0 hours (pre incubation), drug 0.5 μg/ml, Tryptic Soy, wells H (20 ul composition 2c)): red
- Colour of media (Staphylococcus aureus; T = 0 hours (pre incubation), drug 1 μg/ml, Mueller Hinton (70 ul composition 26)): red
- Colour of media (Staphylococcus aureus; T = 0 hours (pre incubation), drug 1 μg/ml, Tryptic Soy (70 ul composition 2c)): red
- Colour of media (Staphylococcus aureus; T = 0 hours (pre incubation), drug 1 μg/ml, Tryptic Soy, wells H (20 ul composition 2c)): red
- Colour of media (Staphylococcus aureus; T = 0 hours (pre incubation), drug 5 μg/ml, Mueller Hinton (70 ul composition 26)): red
- Colour of media (Staphylococcus aureus; T = 0 hours (pre incubation), drug 5 μg/ml, Tryptic Soy (70 ul composition 2c)): red
- Colour of media (Staphylococcus aureus; T = 0 hours (pre incubation), drug 5 μg/ml, Tryptic Soy, wells H (20 ul composition 2c)): red
- Colour of media (Staphylococcus aureus; T = 0 hours (pre incubation), drug 10 μg/ml, Mueller Hinton (70 ul composition 26)): red
- Colour of media (Staphylococcus aureus; T = 0 hours (pre incubation), drug 10 μg/ml, Tryptic Soy (70 ul composition 2c)): red
- Colour of media (Staphylococcus aureus; T = 0 hours (pre incubation), drug 10 μg/ml, Tryptic Soy, wells H (20 ul composition 2c)): red
- Colour of media (Staphylococcus aureus; T = 0 hours (pre incubation), drug 50 μg/ml, Mueller Hinton (70 ul composition 26)): red
- Colour of media (Staphylococcus aureus; T = 0 hours (pre incubation), drug 50 μg/ml, Tryptic Soy (70 ul composition 2c)): red
- Colour of media (Staphylococcus aureus; T = 0 hours (pre incubation), drug 50 μg/ml, Tryptic Soy, wells H (20 ul composition 2c)): red
- Colour of media (Staphylococcus aureus; T = 0 hours (pre incubation), drug 100 μg/ml, Mueller Hinton (70 ul composition 26)): red
- Colour of media (Staphylococcus aureus; T = 0 hours (pre incubation), drug 100 μg/ml, Tryptic Soy (70 ul composition 2c)): red
- Colour of media (Staphylococcus aureus; T = 0 hours (pre incubation), drug 100 μg/ml, Tryptic Soy, wells H (20 ul composition 2c)): red
- Colour of media (Staphylococcus aureus; T = 0 hours (pre incubation), drug 500 μg/ml, Mueller Hinton (70 ul composition 26)): red
- Colour of media (Staphylococcus aureus; T = 0 hours (pre incubation), drug 500 μg/ml, Tryptic Soy (70 ul composition 2c)): red
- Colour of media (Staphylococcus aureus; T = 0 hours (pre incubation), drug 500 μg/ml, Tryptic Soy, wells H (20 ul composition 2c)): red
- Colour of media (Staphylococcus aureus; T = 15-24 h at 35° C., drug 0.01 μg/ml, Mueller Hinton (70 ul composition 26)): red
- Colour of media (Staphylococcus aureus; T = 15-24 h at 35° C., drug 0.01 μg/ml, Tryptic Soy (70 ul composition 2c)): yellow
- Colour of media (Staphylococcus aureus; T = 15-24 h at 35° C., drug 0.01 μg/ml, Tryptic Soy, wells H (20 ul composition 2c)): red
- Colour of media (Staphylococcus aureus; T = 15-24 h at 35° C., drug 0.05 μg/ml, Mueller Hinton (70 ul composition 26)): red
- Colour of media (Staphylococcus aureus; T = 15-24 h at 35° C., drug 0.05 μg/ml, Tryptic Soy (70 ul composition 2c)): red
- Colour of media (Staphylococcus aureus; T = 15-24 h at 35° C., drug 0.05 μg/ml, Tryptic Soy, wells H (20 ul composition 2c)): red
- Colour of media (Staphylococcus aureus; T = 15-24 h at 35° C., drug 0.1 μg/ml, Mueller Hinton (70 ul composition 26)): red
- Colour of media (Staphylococcus aureus; T = 15-24 h at 35° C., drug 0.1 μg/ml, Tryptic Soy (70 ul composition 2c)): red
- Colour of media (Staphylococcus aureus; T = 15-24 h at 35° C., drug 0.1 μg/ml, Tryptic Soy, wells H (20 ul composition 2c)): red
- Colour of media (Staphylococcus aureus; T = 15-24 h at 35° C., drug 0.5 μg/ml, Mueller Hinton (70 ul composition 26)): red
- Colour of media (Staphylococcus aureus; T = 15-24 h at 35° C., drug 0.5 μg/ml, Tryptic Soy (70 ul composition 2c)): red
- Colour of media (Staphylococcus aureus; T = 15-24 h at 35° C., drug 0.5 μg/ml, Tryptic Soy, wells H (20 ul composition 2c)): red
- Colour of media (Staphylococcus aureus; T = 15-24 h at 35° C., drug 1 μg/ml, Mueller Hinton (70 ul composition 26)): red
- Colour of media (Staphylococcus aureus; T = 15-24 h at 35° C., drug 1 μg/ml, Tryptic Soy (70 ul composition 2c)): red
- Colour of media (Staphylococcus aureus; T = 15-24 h at 35° C., drug 1 μg/ml, Tryptic Soy, wells H (20 ul composition 2c)): red
- Colour of media (Staphylococcus aureus; T = 15-24 h at 35° C., drug 5 μg/ml, Mueller Hinton (70 ul composition 26)): red
- Colour of media (Staphylococcus aureus; T = 15-24 h at 35° C., drug 5 μg/ml, Tryptic Soy (70 ul composition 2c)): red
- Colour of media (Staphylococcus aureus; T = 15-24 h at 35° C., drug 5 μg/ml, Tryptic Soy, wells H (20 ul composition 2c)): red
- Colour of media (Staphylococcus aureus; T = 15-24 h at 35° C., drug 10 μg/ml, Mueller Hinton (70 ul composition 26)): red
- Colour of media (Staphylococcus aureus; T = 15-24 h at 35° C., drug 10 μg/ml, Tryptic Soy (70 ul composition 2c)): red
- Colour of media (Staphylococcus aureus; T = 15-24 h at 35° C., drug 10 μg/ml, Tryptic Soy, wells H (20 ul composition 2c)): red
- Colour of media (Staphylococcus aureus; T = 15-24 h at 35° C., drug 50 μg/ml, Mueller Hinton (70 ul composition 26)): red
- Colour of media (Staphylococcus aureus; T = 15-24 h at 35° C., drug 50 μg/ml, Tryptic Soy (70 ul composition 2c)): red
- Colour of media (Staphylococcus aureus; T = 15-24 h at 35° C., drug 50 μg/ml, Tryptic Soy, wells H (20 ul composition 2c)): red
- Colour of media (Staphylococcus aureus; T = 15-24 h at 35° C., drug 100 μg/ml, Mueller Hinton (70 ul composition 26)): red
- Colour of media (Staphylococcus aureus; T = 15-24 h at 35° C., drug 100 μg/ml, Tryptic Soy (70 ul composition 2c)): red
- Colour of media (Staphylococcus aureus; T = 15-24 h at 35° C., drug 100 μg/ml, Tryptic Soy, wells H (20 ul composition 2c)): red
- Colour of media (Staphylococcus aureus; T = 15-24 h at 35° C., drug 500 μg/ml, Mueller Hinton (70 ul composition 26)): red
- Colour of media (Staphylococcus aureus; T = 15-24 h at 35° C., drug 500 μg/ml, Tryptic Soy (70 ul composition 2c)): red
- Colour of media (Staphylococcus aureus; T = 15-24 h at 35° C., drug 500 μg/ml, Tryptic Soy, wells H (20 ul composition 2c)): red
- Colour of media in each well (Staphylococcus aureus; bacteria samples 5c, Benzyl Penicillin or Cloxacillin 1 μg/ml): red
- Colour of media in each well (Staphylococcus aureus; bacteria samples 5c, Benzyl Penicillin or Cloxacillin 10 μg/ml): red
- Colour of media in each well (Staphylococcus aureus; bacteria samples 5c, Benzyl Penicillin or Cloxacillin 100 μg/ml): red
- Colour of media in each well (Staphylococcus aureus; bacteria samples 5c, Benzyl Penicillin or Cloxacillin 1,000 μg/ml): red
- Colour of media in each well (Staphylococcus aureus; bacteria samples 5c, Benzyl Penicillin or Cloxacillin 10,000 μg/ml): red
- Colour of media in each well (Staphylococcus aureus; bacteria samples 5e, Benzyl Penicillin or Cloxacillin 1 μg/ml): red
- Colour of media in each well (Staphylococcus aureus; bacteria samples 5e, Benzyl Penicillin or Cloxacillin 10 μg/ml): red
- Colour of media in each well (Staphylococcus aureus; bacteria samples 5e, Benzyl Penicillin or Cloxacillin 100 μg/ml): red
- Colour of media in each well (Staphylococcus aureus; bacteria samples 5e, Benzyl Penicillin or Cloxacillin 1,000 μg/ml): red
- Colour of media in each well (Staphylococcus aureus; bacteria samples 5e, Benzyl Penicillin or Cloxacillin 10,000 μg/ml): red
